Reference: patent publication US20260373274A1, “PEPTIDE-LINKED DRUG DELIVERY SYSTEM” (priority 2022, published 2026)

Assays:
[1] = test system: major organs (liver, spleen, heart, lungs, and kidneys); experiment: Necropsy, histopathology of major organs; assay type: in vivo, female BALB/c mice
Excerpt: (§1) At the end of a 3-week treatment, mice were euthanized. The organs/tissues were harvested, fixed in 10% neutral buffered formalin for 2 days. Bones were decalcified in a formic acid solution (Surgipath Decalcifier I; Leica Biosystems, Weltzar, Germany). The samples were then embedded in paraffin, sectioned (5 μm), and stained with H&E for examination by an ACVP board certified anatomic pathologist.

[2] = test system: orthotopic human UMUC-3 tumors; experiment: Therapeutic efficacy for treating BC, orthotopic UMUC-3/GFP-Luc xenograft
Excerpt: These animals were immediately euthanized I week after the completion of the treatment schedule.
(§2) Slides were then counterstained with Hematoxylin.

[3] = Hematology, complete blood count; assay type: in vivo, female BALB/c mice; conditions: i.v., 0.75 mg/kg weekly for 3 weeks
Protocol: as §1, with “Necropsy—Seven- to 9-week-old female BALB/c mice (n=4/group) were treated weekly with PBS, DM1, DM1-peptide (0.75 mg/kg of drug content), or cisplatin (10 mg/kg) via tail-vein injection (150 μL). At” for “At”
(§3) Hematology and biochemistry—Blood samples were collected via cardiac puncture. A complete blood count, including red blood cell, white blood cell, reticulocyte and platelet counts, with an automated differential leukocyte count, was performed using an IDEXX Procyte DX hematology analyzer (iDEXX, Westbrook. ME). Blood smears were prepared, stained with modified Wright's stain, examined in a blinded fashion by a board-certified veterinary clinical pathologist (T.S.), and imaged using a Nikon Eclipse TE2000-U fluorescent microscope equipped with a photometrics CoolSNAP HQ^2 camera (Nikon Corporation, Tokyo, Japan). The blood was also centrifuged (1,500×G) for 15 min to obtain the serum for biochemical analysis using a Beckman Coulter AU680 analyzer (Beckman Coulter, Brea, CA).

Renca/GFP-Luc tumors = experiment: Kidney cancer treatment, orthotopic Renca/GFP-Luc syngeneic model; assay type: in vivo, female BALB/c mice; murine tumor cells
Protocol: Evaluation of DM1-Bdd for Kidney cancer treatment—Renca/GFP-Luc cells ([…]) in PBS (3 μL) were orthotopically implanted into the kidney capsules of 7- to 9-week-old female BALB/c mice (Jackson Laboratory, Bar Harbor, ME) as previously described. The tumor progression was confirmed by bioluminescence imaging. […] The animals were monitored for tumor growth inhibition and survival as described above. Additional mice were used for histopathological analysis (n=4/group).
as §2

panel of BC cell lines = experiment: Cell viability and cytotoxicity assay, panel; assay type: cell-based
Protocol: (§4) Cell viability and cytotoxicity assay—Cancer cells (3×10^3/well) were seeded on a flat bottom 96-well plate overnight. […] CellTiter Glo reagent (Promega, Madison, WI) was added in each well (50 μL). The luminescence generated was recorded using a microplate reader (Tecan US Inc., Morrisville, NC). The dose response curves were plotted, and the half maximal inhibitory concentrations (IC50 values) were calculated using Graph Pad Prism 6.0 software.

Serum biochemistry = assay type: in vivo, female BALB/c mice; conditions: i.v. weekly for 3 weeks, CIS 10 mg/kg
Excerpt: as §1, §3

UMUC-3 = experiment: Cell viability and cytotoxicity assay; assay type: cell-based, human; conditions: 72 h
Protocol: as §4

[4] = test system: kidney injury molecule-1 (KIM-1) and neutrophil gelatinase-associated lipocalin (NGAL); experiment: Nephrotoxicity studies, urinary renal injury biomarkers by ELISA; assay type: in vivo, BALB/c mice; conditions: single i.v. dose; 3 days
Protocol: The level of the acute renal injury biomarkers, neutrophil gelatinase-associated lipocalin (NGAL) and kidney injury molecule-1 (KIM-1) in the urine samples, were measured using ELISA assays according to the manufacturer's instructions (R&D Systems, Minneapolis, MN). […] All the animals (n=3/group) were euthanized at the end of the treatment and the kidneys were collected and fixed in 10% neutral buffered formalin. The tissues were then processed, embedded in paraffin, sectioned, and stained with H&E. Immunohistochemistry (IHC) for kidney injury (NGAL and KIM-I) was also performed.

Renca = experiment: Cell viability and cytotoxicity assay; assay type: cell-based, murine; conditions: 72 h
Protocol: as §4

[5] = i.v., 0.75 mg/kg weekly for 3 weeks

Structure (SMILES): COc1cc2cc(c1Cl)N(C)C(=O)C[C@H](OC(=O)[C@H](C)N(C)C(=O)CCS)[C@]1(C)O[C@H]1[C@H](C)[C@@H]1C[C@@](O)(NC(=O)O1)[C@H](OC)/C=C/C=C(\C)C2 [DM1, N2′-deacetyl-N2′-(3-mercapto-1-oxopropyl)-maytansine]
- overall toxicity ([1]; i.v. weekly for 3 weeks): evidences of hepatic and renal injury
- extramedullary hematopoiesis (EMH), splenic and hepatic [1, 5]: Increased splenic and hepatic EMH
- anti-tumor activity of i.v. DM1-Bdd versus i.v. DM1 ([2]; bioluminescence imaging during 3 once-per-week treatments): similar
- animal survival compared to i.t. MIT [2, 5]: prolonged animal survival
- survival after 100 days [2, 5]: 0%
- tumor growth inhibition compared to i.t. MIT [2, 5]: more effective in inhibiting tumor growth
- inflammatory response [3]: inflammatory response characterized by increased proportions of neutrophils, monocytes, and platelets
- reticulocytes [3]: induced reticulocytosis without apparent anemia
- survival, i.v. or i.t. (Renca/GFP-Luc tumors; i.v. or i.t., 0.75 mg/kg weekly for 3 weeks): died
- tumor in kidneys by histological examination (Renca/GFP-Luc tumors; one week after completing the treatment course): large and accompanied with an infiltration of mononuclear cells
- fold more potent than commonly used ITC drugs, including MIT, DOX and CIS (panel of BC cell lines): 100 fold
- muscle injury (CK activity) (Serum biochemistry; DM1 0.75 mg/kg): induced muscle injury (CK activity)
- hepatotoxicity: release of ALP, ALT, and AST (Serum biochemistry; DM1/DM1-Bdd 0.75 mg/kg): increases in ALT and AST activities
- urea nitrogen/creatinine ratio (Serum biochemistry; DM1/DM1-Bdd 0.75 mg/kg): increases in ALT and AST activities and BUN/creatinine ratios
- IC50 against UMUC-3 (UMUC-3): nanomolar (nM) range
- potency against UMUC-3 compared to other chemotherapeutics (UMUC-3): more potent than cisplatin (CIS), doxorubicin (DOX) and mitomycin (MIT), and as effective as gemcitabine (GEM)
- potency compared to DOX (UMUC-3): more potent than DOX
- induction of KIM-1 and/or NGAL, 3 days [4]: continued induction of KIM-1 and/or NGAL
- effectiveness against Renca cell line (Renca): effective
